Columns and labels:
[1] = target: T1, lipoxidase (E.C. 13.1.13) (Glycine max, UniProt P08170); assay: The Lipoxidase Test (inhibition of linoleic acid oxidation); format: biochemical; details: test substrate made with 0.5% by weight solution of the material in ethanol, borate buffer pH 9.0, OD at 234 nm
T1 sequence (P08170 1-839): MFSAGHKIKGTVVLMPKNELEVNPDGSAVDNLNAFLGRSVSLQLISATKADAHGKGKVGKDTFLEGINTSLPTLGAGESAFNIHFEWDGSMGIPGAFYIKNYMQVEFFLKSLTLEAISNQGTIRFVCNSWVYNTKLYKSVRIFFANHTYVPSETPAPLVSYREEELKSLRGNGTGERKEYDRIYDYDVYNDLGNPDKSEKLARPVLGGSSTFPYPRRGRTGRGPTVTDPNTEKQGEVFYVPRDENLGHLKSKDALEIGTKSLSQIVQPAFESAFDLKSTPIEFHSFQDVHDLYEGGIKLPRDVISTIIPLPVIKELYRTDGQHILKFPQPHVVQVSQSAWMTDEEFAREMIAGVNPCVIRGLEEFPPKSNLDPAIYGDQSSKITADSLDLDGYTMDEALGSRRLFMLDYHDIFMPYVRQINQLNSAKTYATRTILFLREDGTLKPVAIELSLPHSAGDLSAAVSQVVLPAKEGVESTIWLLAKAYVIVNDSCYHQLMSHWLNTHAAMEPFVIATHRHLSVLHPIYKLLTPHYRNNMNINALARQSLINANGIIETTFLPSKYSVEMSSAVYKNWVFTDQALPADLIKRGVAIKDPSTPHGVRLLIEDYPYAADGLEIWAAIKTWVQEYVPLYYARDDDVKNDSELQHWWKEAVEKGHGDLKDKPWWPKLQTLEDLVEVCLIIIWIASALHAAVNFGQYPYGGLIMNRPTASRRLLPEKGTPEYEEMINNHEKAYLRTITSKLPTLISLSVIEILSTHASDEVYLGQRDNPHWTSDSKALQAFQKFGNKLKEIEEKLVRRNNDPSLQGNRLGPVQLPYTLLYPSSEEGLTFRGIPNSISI

[2] = system: body malodour (axillae of human subjects); assay: Odour Reduction Value Test (soap bars applied to the axillae of a human panel); format: in vivo; details: for Odour Reduction Value: 0 to 5 scale, 5 hours after washing
Experimental: As has been stated, the ability of toilet soap containing both a deodorant perfume and a deodorant other than a deodorant perfume to reduce body malodour was assessed by an odour reduction value test, somewhat similar to that described by Whitehouse and Carter in Proc. Scientific Section of the Toilet Goods Association, 48, 31 (1967) for the measurement of body odour inhibition by germicides in toilet soap.
The test described in that publication was modified in three ways: firstly a 0 to 5 instead of a 0 to 10 grading scale was employed, secondly grading of odour intensity was performed 5 hours after treatment instead of 24 hours, and thirdly, the concentration of deodorant perfume incorporated in the test detergent product was 1.5% by weight of the product.
In this test, the odour reduction value of a standard soap bar containing a deodorant perfume at a standard concentration is measured by assessing its effectiveness in reducing body malodour when the standard soap bar is used to wash the axillae (armpits) of a panel of human subjects.
Standard soap bars are prepared as follows, all amounts given being by weight.
A soap base there is used a neutral wet sodium soap containing 63% of total fatty matter of which 82% is tallow fatty acid and 18% is coconut oil fatty acid. To a homogeneous mixture of 9000 parts of this soap base and 340 parts of free coconut oil fatty acid at 80° C. are added with mixing, 9.4 parts of a 20% aqueous solution of tetrasodium ethylenediamine tetraacetate, 2.2 parts of a 60% aqueous solution of 1-hydroxyethane-1,1-diphosphonic acid and 7.2 parts of butylated hydroxy toluene (BHT) antioxidant dissolved in a little methylated spirits and the temperature of the mass is raised to 140° C. under superatmospheric pressure. The mass is then sprayed at about 30 mm of mercury, to produce a dried soap composition which is collected and extruded at 30° C. as noodles of about 12% moisture content.
9,770 parts of the soap noodles thus obtained are mixed at ambient temperature with 150 parts of the deodorant perfume to be tested, together with 30 parts of a titanium dioxide opacifier and 50 parts of a colourant suspension. The resulting mixture is milled and stamped into tablets. The deodorant perfume to be tested is therefore present at the standard level of 1.5%.
In other respects, the control bar should only contain those additives conventionally present in personal washing products and for the purpose in the amount conventionally used in the art.
A team of 2 to 4 Caucasian female assessors of age within the range of from 20 to 40 years is selected for olfactory evaluation on the basis that each is able to rank correctly the odour levels of the series of aqueous isovaleric acid solutions listed in Table 2 below, and each is able to detect the reduction in body odour following application to the axillae of human subjects of soap containing 2% germicides, according to the procedure described by Whitehouse and Carter.
A panel of 30 to 50 human subjects for use in the test is assembled from Caucasian male subjects of age within the range of from 20 to 55 years.
For two weeks before the start of a test, the panel subjects are assigned a non-deodorant soap bar for exclusive use of bathing and are denied the use of any type of deodorant or antiperspirant. At the end of this period, the subjects are randomly divided into two groups. The control soap bars are then applied to the left axillae of the first group and the right axillae of the second, and the test soap bars are applied to the right axillae of the first group and the left axillae of the second.
The soap bars are applied by a technician using a standard technique in which a wet flannel is soaped with the soap bar for 15 seconds, the axilla is washed with the soaped flannel for 30 seconds, then wiped with a water rinsed flannel and dried with a clean towel.

[3] = The Morpholine Test (depression of partial vapour pressure of morpholine); details: morpholine 0.25 g + perfume material 1 g, 37° C., headspace GC

Q: For i-Nonyl formate, which “LIC (lipoxidase-inhibiting capacity, % inhibition)” value [1] is on record?
A: 19%

Q: Which results are given for O=C(Nc1ccc(Cl)cc1)Nc1ccc(Cl)c(Cl)c1 [3,3,4'-trichloro-carbanilide, 3,4,4'-trichlorocarbanilide]?
A: Odour Reduction Value ([2]; 0.16 wt % germicide in soap bar vs control soap bar without germicide): 0.10; Odour Reduction Value ([2]; 0.25 wt % germicide in soap bar vs control soap bar without germicide): 0.14; Odour Reduction Value ([2]; 0.5 wt % germicide in soap bar vs control soap bar without germicide): 0.22; Odour Reduction Value ([2]; 0.75 wt % germicide in soap bar vs control soap bar without germicide): 0.27; Odour Reduction Value ([2]; 1.0 wt % germicide in soap bar vs control soap bar without germicide): 0.30; Odour Reduction Value ([2]; 2.0 wt % germicide in soap bar vs control soap bar without germicide): 0.37; maximum reduction in odour intensity obtainable (odour reduction value) ([2]; germicide alone in soap bar, irrespective of the amount of germicide): ≤ 0.4

Q: Which results are given for O=C(Cc1ccccc1)OCCc1ccccc1 [Phenylethyl phenylacetate]?
A: inhibition at 0.5 % strength ([1]; read-out: LIC (lipoxidase-inhibiting capacity, % inhibition)): 0%; RVR (Raoult variance ratio) [3]: 1.22

Q: For Dimyrcetol, which “LIC (lipoxidase-inhibiting capacity, % inhibition)” value [1] is on record?
A: 14%

Q: For Tetrahydromuguol, which “LIC (lipoxidase-inhibiting capacity, % inhibition)” value [1] is on record?
A: 24%

Q: Which “LIC (lipoxidase-inhibiting capacity, % inhibition)” value [1] does the source give for i-Nonyl acetate here?
A: 50%
